Test results as given in paper PMC10480161, “Identification of potent and selective N-myristoyltransferase inhibitors of Plasmodium vivax liver stage hypnozoites and schizonts” (Nature Communications, 2023).
Values joined by “and” are separate entries in the source; they are usually repeats but may differ in a detail not shown here. Equal entries are not always repeated. Where two headings read alike, the source gives them in different places.

What was measured:
HepG2 cells = test: HepG2 cytotoxicity assay (Live/Dead staining); details: for Percentage of live HepG2 cells compared with diluent controls: replicates
Experimental: Therefore, we assessed cytotoxicity in the human hepatoma HepG2 cell line. We required a PvNMT to HsNMT SI > 20 for further screening. HepG2 cells were exposed to the compounds at concentrations ranging from 1 to 20 µM for […], and toxicity was assessed via live-dead staining.
The viability of the HepG2 cell line following exposure to the compounds was determined by a Live/Dead cell assay kit (Invitrogen). Briefly, cells were added to a 96-well plate at a concentration of 5000 cells per well, excluding the exterior wells. Cells were exposed to the compounds at different concentrations ranging from 1 to 20 µM. Cells were washed every 24 h and supplemented with fresh doses of compounds. At 72 h post-treatment, 1 µM calcein-AM and 1 µM ethidium homodimer were added to the wells and incubated for 10 min at 37 °C. After washing with PBS, the cells were visualized with fluorescent microscopy (Keyence BZ-X700).

P. falciparum NF54 = test: P. falciparum blood stage assay (SYBR Green); type: cell-based, Plasmodium falciparum; details: 72 h; for P. falciparum blood-stage development (parasite DNA level fluorescence): untreated = 129; for IC50: ring-stage parasites, relative IC50
Experimental: To assess whether any of the PvNMTis developed here could qualify as TCP-1 candidates, we assessed the effect of each compound on blood-stage P. falciparum parasites, as there is currently no well-established in vitro platform for screening P. vivax blood-stage parasites. Synchronized P. falciparum NF54 ring-stage parasites were treated for 72 h with each compound at various concentrations, ranging from 0.625 µM to 10 µM, and parasite DNA replication was measured using a fluorescent DNA binding dye (SYBR Green).
Sorbitol-synchronized P. falciparum NF54 ring-stage parasites were cultured at a parasitemia of 0.5% and hematocrit of 1.5% in a 96-well microtiter plate. Parasites were treated with each NMT inhibitor compound at 0.625, 1.25, 2.5, 5, or 10 µM for 72 h. Direct lysis of the blood cells to release the parasite DNA was performed by adding 100 μl of LBS buffer containing SYBR green I DNA binding dye to each well. […] ICEstimator regression analysis (http://www.antimalarial-icestimator.net/) was used to obtain relative IC50 values for each compound.

[1] = tested on: primary human hepatocytes; test: Nuclear counts (DAPI) in P. vivax-infected primary hepatocytes as measure of toxicity; type: cell-based; details: two technical replicates
Experimental: Accordingly, we applied dose–response curves of all the tested NMTs on parasite isolates 2 and 3 over concentrations up to 20 µM (Fig. 5c, d, Source Data file). […] Nuclei were counted in each well using DAPI staining as a measure of toxicity (Supplementary Fig. 86, Supplementary Source data). We used the phosphatidylinositol 4-kinase inhibitor (PI4Ki), MMV390048, as a positive control for eliminating schizonts[37],[38].
Plasmodium vivax liver stage assays were performed as described previously. Cryopreserved primary human hepatocytes (Cat No. F00995-P) and hepatocyte culture medium (HCM) (InVitroGroTM CP Medium) were obtained from Bioreclamation IVT, Inc., (Baltimore, MD, USA). Briefly, we seeded 384-well plates with primary hepatocytes from a single donor lot at a density of 25,000 cells per well. We then infected the hepatocytes with 14,000 freshly hand-dissected sporozoites per well. Cells were exposed to the compounds at indicated concentrations from day 5 post-infection. We used Pi4K inhibitor MMV390048, at 20 µM, as a positive control to eliminate P. vivax liver schizonts. We then proceeded to feed cultures every day, replacing the compounds until day 8 post-infection. Cells were fixed with 4% PFA, permeabilized with 1% Triton X-100, blocked with 2% BSA, and stained with DAPI and PvUIS4 antibodies to detect schizonts and hypnozoites forms by confocal microscopy. […] DAPI was diluted 1:2000. The images were processed, analyzed and outlier cells were removed using IMARIS (Bitplane Inc.) image analysis software.
Supplementary Fig. 86. […] Nuclear […]
counts, normalized to DMSO controls, for NMT inhibitors across a dose response. Counts were ob-tained using DAPI staining from the P. vivax-infected wells quantified in Fig. 5d. Error bars represent the standard deviation of two technical replicates.
(1 picture or pasted object on this page, not shown here)

HsNMT1 = target: T1, HsNMT1 (Homo sapiens, UniProt P30419); test: NMT activity assay (CPM detection of free CoA), HsNMT
T1 sequence (P30419 1-496): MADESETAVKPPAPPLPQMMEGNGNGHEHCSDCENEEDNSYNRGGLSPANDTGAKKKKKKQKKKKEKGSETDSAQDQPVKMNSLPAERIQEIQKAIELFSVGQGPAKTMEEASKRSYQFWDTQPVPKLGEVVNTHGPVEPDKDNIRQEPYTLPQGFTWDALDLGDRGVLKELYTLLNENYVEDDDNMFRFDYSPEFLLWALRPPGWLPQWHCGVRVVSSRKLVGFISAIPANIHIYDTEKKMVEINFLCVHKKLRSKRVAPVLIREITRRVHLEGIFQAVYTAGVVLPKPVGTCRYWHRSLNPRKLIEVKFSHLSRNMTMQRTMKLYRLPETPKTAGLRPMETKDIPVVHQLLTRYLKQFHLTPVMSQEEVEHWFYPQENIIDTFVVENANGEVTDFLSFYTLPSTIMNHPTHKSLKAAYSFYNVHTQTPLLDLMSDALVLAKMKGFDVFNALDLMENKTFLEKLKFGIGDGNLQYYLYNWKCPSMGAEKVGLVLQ

SMILES | Percentage of live HepG2 cells compared with diluent controls (HepG2 cells; 1 μM) | Percentage of live HepG2 cells compared with diluent controls (HepG2 cells; 2.5 μM) | Percentage of live HepG2 cells compared with diluent controls (HepG2 cells; 5 μM) | Percentage of live HepG2 cells compared with diluent controls (HepG2 cells; 10 μM) | Percentage of live HepG2 cells compared with diluent controls (HepG2 cells; 20 μM) | P. falciparum blood-stage development (parasite DNA level fluorescence) (P. falciparum NF54; 0.625 uM) | P. falciparum blood-stage development (parasite DNA level fluorescence) (P. falciparum NF54; 1.25 uM) | P. falciparum blood-stage development (parasite DNA level fluorescence) (P. falciparum NF54; 2.5 uM) | P. falciparum blood-stage development (parasite DNA level fluorescence) (P. falciparum NF54; 5 uM) | P. falciparum blood-stage development (parasite DNA level fluorescence) (P. falciparum NF54; 10 uM) | IC50 (P. falciparum NF54; Plasmodium falciparum, NF54) [µM] | Nucleus counts per well ([1]; 1 uM) | Nucleus counts per well ([1]; 2.5uM) | Nucleus counts per well ([1]; 5 uM) | Nucleus counts per well ([1]; 10uM) | Nucleus counts per well ([1]; 20uM, P. vivax-infected wells) | IC50 (HsNMT1) [µM] | IC50 (HepG2 cells) [µM] | IC50 (P. falciparum NF54) [µM] | IC50 (HsNMT1; read-out: HsNMT IC50, mean of two or more determinations) [µM]
c1cncc(CCOc2cccnc2-c2cccc(N3CCNCC3)c2)c1 [Compound 12g] | 99.9402% and 99.6024% | 99.7323% and 98.2512% | 98.4851% and 90.6374% | 86.6876% and 91.5989% | 78.4502% and 78.1644% | 115 | 117.7 | 114.7 | 99.89 | 87.22 | 0.6 | 14940 per well and 14730 per well | 14740 per well and 14990 per well | 14960 per well and 13600 per well | 13740 per well and 14770 per well | 11770 per well and 13000 per well | 15.9 |  |  | 
c1cncc(CCOc2ccccc2-c2ccnc(N3CCNCC3)c2)c1 [Compound 12j] | 85.5703% and 82.8678% | 74.0847% and 82.3481% | 81.2567% and 75.202% | 74.4485% and 73.0193% | 72.4216% and 71.8759% | 106.8 | 108.9 | 108.6 | 101.9 | 74.22 | 1.25 | 16280 per well and 14580 per well | 10950 per well and 12190 per well | 11170 per well and 12350 per well | 12430 per well and 11110 per well | 10860 per well and 12840 per well | 27.4 |  |  | 
Fc1ccc(-c2ccnc(N3CCNCC3)c2)c(OCCc2cccnc2)c1 [Compound 12l] | 89.7539% and 87.5192% | 87.1294% and 87.1034% | 86.8955% and 86.7396% | 88.7665% and 86.09% | 76.2415% and 75.9816% | 110.1 | 110.9 | 110.4 | 99.67 | 86.75 | 0.37 | 15910 per well and 14650 per well | 13010 per well and 13310 per well | 13030 per well and 13070 per well | 13130 per well and 13070 per well | 11440 per well and 13460 per well | 1.71 |  |  | 
Cc1n[nH]c(C)c1CCOc1cc(F)ccc1-c1ccnc(N2CCNCC2)c1 [Compound 12q] | 99.2906% and 100.564% | 95.6786% and 92.2225% | 91.8587% and 84.219% | 83.4135% and 96.0684% | 80.0613% and 94.8991% | 114.1 | 119.1 | 116.1 | 98.36 | 97.95 |  | 14830 per well and 14410 per well | 12630 per well and 14350 per well | 13780 per well and 14410 per well | 15080 per well and 12510 per well | 12010 per well and 14890 per well |  | > 20 | 0.38 | 1.63
